Measurements taken from patent US20160243023A1, “Novel Skin Remodeling Strategy” (ELC MANAGEMENT LLC, priority 2015, published 2016).

Tests used:
[1] = system: human dermal fibroblasts (HDFs); test: Glycated collagen phagocytosis by HDFs (Phagocytosis Index); assay type: cell-based; conditions: beads pre-treated overnight with methylglyoxal; 3 hours incubation with HDFs
Description: • 1. On day 1, HDFs were plated in 24 well plates. • 2. On day 2, HDFs, after reaching confluence, were maintained for 48 hours under starvation conditions. • 3. On day 4, HDFs were incubated for 3 hours with collagen-coated microspheres (2×10^6 beads) as control or with collagen-coated microspheres (2×10^6 beads) that had been pre-treated overnight with glycation inducer, methylglyoxal. HDFs were then washed with PBS to remove unbound and loosely bound beads. • 4. Cell viability was measured using Presto Blue reagent; phagocytosis was measured by the determination of the fluorescence reading of internalized beads, using the procedure described above in Example 1. Results, shown in FIG. 11, are expressed as Phagocytosis Index (i.e., the ratio of the phagocytosis fluorescent signal divided by the viability signal).

[2] = system: human dermal fibroblasts (HDFs); test: TGFβ1-induced collagen synthesis in HDF after pretreatment with inducers of collagen phagocytosis (PIP EIA); assay type: cell-based; conditions: TGFβ1 used alone at 0.25 ng/ml, 72 hours
Description: • 1. On day 1, HDFs were plated in 96 well plates. • 2. On day 2, HDFs, after reaching confluence, were treated with medium (control) or with actives (test materials previously found by the inventors to be phagocytosis enhancers*; data not shown) under starvation conditions for 48 hours (step 1). • 3. On day 4, the actives were removed and the cells were treated with medium or with a collagen inducer, 0.25 ng/ml TGFβ1 in medium, for 72 hours (step 2). • 4. On day 7, medium was collected and analyzed for collagen release using a PIP EIA. The amount of PIP (pro-collagen ng/ml medium) is quantitated by measuring the absorbance using an EIA plate reader. Accurate sample concentrations of PIP can be determined by comparing the specific absorbances to a standard curve. Cell viability also was assessed using a standard 3-(4,5-dimethylthiazol-2-yl)-2,5-diphenyltetrazoliumbromide (MTT) assay. The assay involves the conversion of the water soluble MTT, a yellow tetrazole, to an insoluble purple formazan in living cells. The formazan is then solubilized and the concentration determined by measuring the absorbance at a wavelength of from about 500-600 nm using a spectrophotometer. […]

CC(=O)C=O [methylglyoxal]
uptake by HDFs of pre-treated collagen-coated beads versus beads coated with unmodified collagen (Phagocytosis Index) [1]: substantially the same rate

TGFβ1: Transforming Growth Factor Beta 1, collagen inducer
increase in collagen synthesis compared with the non-treated control [2]: 30%
